Target: T1, CBP BRD (Homo sapiens, UniProt Q92793)
T1 construct: made in house
Experiment: In vitro fluorescence polarization-based competition binding assay
Conditions: within series 4a-d
Method: FIG. 1A is a line drawing of the florescence polarization competition assay measuring the binding affinity of compounds 4a-d to the CBP BRD. FIG. 1B provides the IC50 values of compounds 4a-d and MS7972. Results are representative of three independent experiments and the error is SD.
Expression and purification of the recombinant CBP BRD in poly-his tag form was conducted using the procedure as previously described (Mujtaba, S. et al., Mol Cell 13, 251-63 (2004)). The purified protein was confirmed with mass spectroscopy. Binding assays were performed with CBP BRD (5 μM) and fluorescent probe (10 nM), and increasing concentration of unlabeled competing ligand.

T1 sequence (Q92793 1085-1192 limits assumed): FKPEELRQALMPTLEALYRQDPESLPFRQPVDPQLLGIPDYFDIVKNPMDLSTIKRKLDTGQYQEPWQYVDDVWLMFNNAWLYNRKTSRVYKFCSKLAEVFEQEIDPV

CC(=O)NCCn1c2c(c3ccccc31)C(=O)NCC2 [4a, 2,3,4,5-tetrahydro-5-(2′-acetamidoethyl)-1H-pyrido-[4,3-b]indol-1-one]
binding affinity to CBP BRD, in words: lowest improvement of the series

CC(=O)NCCCCCCn1c2c(c3ccccc31)C(=O)NCC2 [4d, 2,3,4,5-tetrahydro-5-(6′-acetamidohexyl)-1H-pyrido-[4,3-b]indol-1-one]
binding affinity to CBP BRD, in words: partial or total loss of the affinity
